Measured values: BindingDB's records for doi:10.1016/j.bmcl.2010.11.084 (Merck Frosst Centre For Therapeutic Research, 2011)

Experiment: Antagonist activity at CRTH2 in human eosinophil assessed as effect of cellular shape change by EOS assay

Question: With `CN(C(=O)C1(c2ccc(F)cc2)CCC1)[C@@H]1CCc2c(CC(=O)O)c3cccnc3n2C1` [(R)-2-(8-(1-(4-fluorophenyl)-N-methylcyclobutanecarboxamido)-6,7,8,9-tetrahydropyrido[3,2-b]indolizin-5-yl)acetic acid] as the compound, how does the IC50 read?
Answer: 1.2 nM

Question: For `CN([C@@H]1CCc2c(CC(=O)O)c3cccnc3n2C1)S(=O)(=O)c1ccc(F)cc1` [(R)-2-(8-(4-fluoro-N-methylphenylsulfonamido)-6,7,8,9-tetrahydropyrido[3,2-b]indolizin-5-yl)acetic acid], which IC50 is on record?
Answer: 7 nM

Question: Which IC50 does the source give for `CN(C(=O)C(C)(C)c1ccc(F)cc1)[C@@H]1CCc2c(CC(=O)O)c3cccnc3n2C1` [(R)-2-(8-(2-(4-fluorophenyl)-N,2-dimethylpropanamido)-6,7,8,9-tetrahydropyrido[3,2-b]indolizin-5-yl)acetic acid] here?
Answer: 2.3 nM

Question: With `C[C@@H](C(=O)N(C)[C@@H]1CCc2c(CC(=O)O)c3cccnc3n2C1)c1ccc(F)cc1` [2-((R)-8-((R)-2-(4-fluorophenyl)-N-methylpropanamido)-6,7,8,9-tetrahydropyrido[3,2-b]indolizin-5-yl)acetic acid] as the compound, how does the IC50 read?
Answer: 1.2 nM

Question: With `CN(C(=O)C1(c2ccc(F)cc2)CC1(C)C)[C@@H]1CCc2c(CC(=O)O)c3cccnc3n2C1` (stereo partly drawn) [2-((8R)-8-(1-(4-fluorophenyl)-N,2,2-trimethylcyclopropanecarboxamido)-6,7,8,9-tetrahydropyrido[3,2-b]indolizin-5-yl)acetic acid] as the compound, how does the IC50 read?
Answer: 2.4 nM

Question: For `CN([C@@H]1CCc2c(CC(=O)O)c3ccc(-c4ccc(F)cc4)nc3n2C1)S(=O)(=O)c1ccc(F)cc1` [(R)-2-(8-(4-fluoro-N-methylphenylsulfonamido)-2-(4-fluorophenyl)-6,7,8,9-tetrahydropyrido[3,2-b]indolizin-5-yl)acetic acid], which IC50 is on record?
Answer: 16 nM

Question: For `CN(C(=O)C1(c2ccc(F)cc2)CCCC1)[C@@H]1CCc2c(CC(=O)O)c3cccnc3n2C1` [(R)-2-(8-(1-(4-fluorophenyl)-N-methylcyclopentanecarboxamido)-6,7,8,9-tetrahydropyrido[3,2-b]indolizin-5-yl)acetic acid], which IC50 is on record?
Answer: 3.4 nM

Question: Which IC50 does the source give for `CN(C(=O)C1(c2ccc(F)cc2)CC1)[C@@H]1CCc2c(CC(=O)O)c3cccnc3n2C1` [(R)-2-(8-(1-(4-fluorophenyl)-N-methylcyclopropanecarboxamido)-6,7,8,9-tetrahydropyrido[3,2-b]indolizin-5-yl)acetic acid] here?
Answer: 3.1 nM
